25 compounds from US11149035B2, “Chemical compounds as H—PGDS inhibitors” (GlaxoSmithKline Intellectual Property Development Limited, priority 2017, dated 2021) can be followed below.

The assay deals with T1, haematopoietic prostaglandin D synthase (H-PGDS) (Homo sapiens, UniProt O60760).
T1 construct: Full length human H-PGDS cDNA (Invitrogen Ultimate ORF IOH13026) was amplified by PCR; 6-His (N); TEV protease cleavage site (N); made in house; host or cells: E. coli BL21 (DE3*)
The assay can be described thus: H-PGDS RapidFire high throughput mass spectrometry assay (conversion of PGH2 to PGD2). Format: biochemical. The settings on record: 10 nM H-PGDS, PGH2 formed in situ by COX-2 from arachidonic acid; four parameter curve fit; read-out: Potency Range (mean pIC50) (converted). As for the experimental part: The H-PGDS RapidFire™ mass spectrometric assay monitors conversion of prostaglandin H2 (PGH2) to prostaglandin D2 (PGD2) by haematopoietic prostaglandin D synthase (H-PGDS). In the assay format described here, the substrate (PGH2) is formed in situ by the action of cyclooxygenase-2 on arachidonic acid. This first step is set up to be fast, and generates a burst of PGH2 at ˜10 μM. The PGH2 is then further converted to PGD2 by the H-PGDS enzyme. […] Plates are then read on the RapidFire™ high throughput solid phase extraction system (Agilent) which incorporates a solid phase extraction step coupled to a triple quadrupole mass spectrometer (AB SCIEX). Relative levels of PGD2 and PGF2α, which acts as a surrogate for substrate, are measured and a percent conversion calculated. Inhibitors are characterised as compounds which lower the conversion of PGH2 to PGD2.
Full length human H-PGDS cDNA (Invitrogen Ultimate ORF IOH13026) was amplified by PCR with the addition of a 5′ 6-His tag and TEV protease cleavage site. The PCR product was digested with NdeI and XhoI and ligated into pET22b+ (Merck Novagen®). Expression was carried out in E. coli strain BL21 (DE3*) using auto-induction Overnight Express™ Instant TB medium (Merck Novagen®) supplemented with 1% glycerol. The culture was first grown at 37° C. and the temperature was reduced to 25° C. when OD600 reached 2.0. Cells were harvested by centrifugation after a further 18 hours. 10 g of E. coli cell pellet was suspended to a total volume of 80 mL in lysis buffer (20 mM Tris-Cl pH 7.5, 300 mM NaCl, 20 mM imidazole, 5 mM β-mercaptoethanol, 10% glycerol). 1 mg/mL protease inhibitors (Protease Inhibitor Cocktail Set III, Merck Calbiochem®) and 1 mg/mL lysozyme were added to the cell suspension. The suspension was then sonicated for 5 min (UltraSonic Processor VCX 750, Cole-Parmer Instrument Co.) with a micro probe (50% amplitude, 10 sec on/off) and then centrifuged at 100,000 g for 90 minutes (at 4° C.). The supernatant was loaded onto a Ni-NTA HiTrap column (5 mL, GE Healthcare, pre-equilibrated in lysis buffer). The column was washed with 10 column volumes of lysis buffer and eluted with lysis buffer containing 500 mM imidazole. The pooled protein peak fractions were concentrated using a 10 kDa centrifugal filter at 3500 g and 4° C. (Amicon Ultra-15 centrifugal filter unit with Ultracel-10 membrane from Millipore). Further purification of the concentrated protein was carried out using gel filtration chromatography on a HiLoad 26/600 Superdex 75 preparative grade column (GE Healthcare Life Sciences) using 50 mM Tris pH 7.5, 50 mM NaCl, 1 mM dithiothreitol, 1 mM MgCl2. Fractions containing the protein were pooled, concentrated as described above, and stored at −80° C.
The full length human COX-2 gene (accession number L15326) was amplified by PCR to generate an EcoRI—HindIII fragment containing an in-frame FLAG tag. This was subcloned into pFastBac 1 (Invitrogen). The COX-2 FLAG plasmid was recombined into the baculovirus genome according to the BAC-to-BAC protocol described by Invitrogen. Transfection into Spodoptera frugiperda (Sf9) insect cells was performed using Cellfectin (Invitrogen), according to the manufacturer's protocol. Super Sf9 cells were cultured in EX420 media (SAFC Biosciences) to a density of approximately 1.5×10^6 cells/mL within a wave bioreactor. Recombinant virus was added at a Multiplicity of Infection (MOI) of 5 and the culture was allowed to continue for 3 days. Cells were harvested using a continuous feed centrifuge run at 2500 g at a rate of approximately 2 L/min with cooling. The resultant cell slurry was re-centrifuged in pots (2500 g, 20 min, 4° C.) and the cell paste was stored at −80° C. 342 g of cell paste was re-suspended to a final volume of 1600 mL in a buffer of 20 mM Tris-Cl pH 7.4, 150 mM NaCl, 0.1 mM EDTA, 1.3% w/v n-octyl-[…] containing 20 Complete EDTA-free Protease Inhibitor Cocktail tablets (Roche Applied Science). […]

Molecules are shown by their SMILES. Some results are limits rather than exact numbers.

T1 sequence (O60760 whole entry): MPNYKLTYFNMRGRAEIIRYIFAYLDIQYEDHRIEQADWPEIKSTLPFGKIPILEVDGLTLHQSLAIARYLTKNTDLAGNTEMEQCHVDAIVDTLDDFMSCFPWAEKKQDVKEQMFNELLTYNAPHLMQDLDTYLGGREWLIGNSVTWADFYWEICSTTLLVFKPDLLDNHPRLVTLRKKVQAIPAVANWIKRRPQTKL

For the compound `O=C(N[C@H]1CCNC1=O)c1cnc2cc(C3CC3)ncc2c1` [Example 29, (S)-7-Cyclopropyl-N-(2-oxopyrrolidin-3-yl)-1,6-naphthyridine-3-carboxamide], the IC50 was 10 to 79.4 nM.
The same measure for `O=C(N[C@H]1C[C@](O)(C(F)(F)F)C1)c1cnc2cc(C3CC3)ncc2c1` [Example 40, 7-Cyclopropyl-N-((1s,3s)-3-hydroxy-3-(trifluoromethyl)cyclobutyl)-1,6-naphthyridine-3-carboxamide]: 100 to 1000 nM; for `CC(C)(O)[C@H]1CC[C@H](NC(=O)c2cnc3cc(N4CCC4)ncc3c2)CC1` [Example 4, 7-(Azetidin-1-yl)-N-(trans-4-(2-hydroxypropan-2-yl)cyclohexyl)-1,6-naphthyridine-3-carboxamide]: less than 10 nM; for `CC(C)(O)[C@H]1CC[C@H](NC(=O)c2cnc3ccncc3c2)CC1` [Example 1, N-(trans-4-(2-Hydroxypropan-2-yl)cyclohexyl)-1,6-naphthyridine-3-carboxamide]: 1260 to 10000 nM.
The same measure for `O=C(N[C@H]1CCNC1=O)c1cnc2nc(N3CCC3)ccc2c1` [Example 19, (S)-7-(Azetidin-1-yl)-N-(2-oxopyrrolidin-3-yl)-1,8-naphthyridine-3-carboxamide]: 10 to 79.4 nM; for `C[C@]1(O)C[C@@H](NC(=O)c2cnc3nc(N4CCC4)ccc3c2)C1` [Example 18, 7-(Azetidin-1-yl)-N-((1s,3s)-3-hydroxy-3-methylcyclobutyl)-1,8-naphthyridine-3-carboxamide]: 100 to 1000 nM; for `CC(C)(O)[C@H]1C[C@H](NC(=O)c2cnc3cc(C4CC4)ncc3c2)C1` [Example 32, 7-Cyclopropyl-N-(trans-3-(2-hydroxypropan-2-yl)cyclobutyl)-1,6-naphthyridine-3-carboxamide]: 10 to 79.4 nM.
In the case of `O=C(N[C@H]1CC[C@H](N2CC(F)(F)C2)CC1)c1cnc2cc(C3CC3)ncc2c1` [Example 38, 7-Cyclopropyl-N-(trans-4-(3,3-difluoroazetidin-1-yl)cyclohexyl)-1,6-naphthyridine-3-carboxamide], the IC50 was 10 to 79.4 nM.
Turning to `CC(N[C@H]1CC[C@H](NC(=O)c2cnc3cc(C4CC4)ncc3c2)CC1)C(F)F` (mixture of isomers) [Example 39, 7-cyclopropyl-N-(trans-4-((1,1-difluoropropan-2-yl)amino)cyclohexyl)-1,6-naphthyridine-3-carboxamide], the IC50 was 10 to 79.4 nM.
On to `O=C(N[C@H]1CC[C@H](N[C@H](CO)C(F)(F)F)CC1)c1cnc2cc(C3CC3)ncc2c1` [Example 37, 7-Cyclopropyl-N-((trans)-4-(((R)-1,1,1-trifluoro-3-hydroxypropan-2-yl)amino)cyclohexyl)-1,6-naphthyridine-3-carboxamide], for which the IC50 was 10 to 79.4 nM.
Turning to `C[C@H]1CCN1c1nc2ncc(C(=O)N[C@H]3C[C@](C)(O)C3)cc2cc1Cl` [Example 64, 6-Chloro-N-((1r,3S)-3-hydroxy-3-methylcyclobutyl)-7-((S)-2-methylazetidin-1-yl)-1,8-naphthyridine-3-carboxamide], the IC50 is less than 10 nM.
The same measure for `C[C@]1(O)C[C@@H](NC(=O)c2cnc3cc(C4CC4)ncc3c2)C1` [Example 31, 7-Cyclopropyl-N-((1s,3s)-3-hydroxy-3-methylcyclobutyl)-1,6-naphthyridine-3-carboxamide]: 100 to 1000 nM.
The same measure for `CC(C)(O)[C@H]1CC[C@H](NC(=O)c2cnc3cc(N4CC(F)C4)ncc3c2)CC1` [Example 3, 7-(3-Fluoroazetidin-1-yl)-N-(trans-4-(2-hydroxypropan-2-yl)cyclohexyl)-1,6-naphthyridine-3-carboxamide]: 10 to 79.4 nM; for `COc1ccc2cc(C(=O)N[C@H]3CC[C@H](C(C)(C)O)CC3)cnc2n1` [Example 50, N-(trans-4-(2-Hydroxypropan-2-yl)cyclohexyl)-7-methoxy-1,8-naphthyridine-3-carboxamide]: 10 to 79.4 nM; for `CCOc1ccc2cc(C(=O)N[C@H]3CC[C@H](C(C)(C)O)CC3)cnc2n1` [Example 56, 7-Ethoxy-N-(trans-4-(2-hydroxypropan-2-yl)cyclohexyl)-1,8-naphthyridine-3-carboxamide]: 10 to 79.4 nM.
The same measure for `C[C@H]1CCN1c1nc2ncc(C(=O)N[C@H]3CC[C@](C)(O)CC3)cc2cc1Cl` [Example 59, 6-Chloro-N-((1r,4s)-4-hydroxy-4-methylcyclohexyl)-7-((S)-2-methylazetidin-1-yl)-1,8-naphthyridine-3-carboxamide]: less than 10 nM; for `C[C@H]1CCN1c1cc2ncc(C(=O)N[C@H]3CCNC3=O)cc2cn1` [Example 22, 7-((S)-2-Methylazetidin-1-yl)-N—((S)-2-oxopyrrolidin-3-yl)-1,6-naphthyridine-3-carboxamide]: 10 to 79.4 nM; for `CC1CCN1c1cc2ncc(C(=O)N[C@H]3CC[C@H](C(C)(C)O)CC3)cc2cn1` (mixture of isomers) [Example 11, N-(trans-4-(2-Hydroxypropan-2-yl)cyclohexyl)-7-(2-methylazetidin-1-yl)-1,6-naphthyridine-3-carboxamide]: 10 to 79.4 nM.
For `O=C(N[C@H]1C[C@](O)(C(F)(F)F)C1)c1cnc2nc(C3CC3)c(Cl)cc2c1` [Example 77, 6-Chloro-7-cyclopropyl-N-((1s,3s)-3-hydroxy-3-(trifluoromethyl)cyclobutyl)-1,8-naphthyridine-3-carboxamide], the IC50 is less than 10 nM.
In the case of `CC(C)(O)[C@H]1CC[C@H](NC(=O)c2cnc3cc(NC4CC4)ncc3c2)CC1` [Example 14, 7-(Cyclopropylamino)-N-(trans-4-(2-hydroxypropan-2-yl)cyclohexyl)-1,6-naphthyridine-3-carboxamide], the IC50 was 10 to 79.4 nM.
For `CC(N[C@H]1CC[C@H](NC(=O)c2cnc3nc(C4CC4)ccc3c2)CC1)C(F)F` (mixture of isomers) [Example 57, 7-Cyclopropyl-N-(trans-4-((1,1-difluoropropan-2-yl)amino)cyclohexyl)-1,8-naphthyridine-3-carboxamide], the IC50 was 10 to 79.4 nM.
Consider `C[C@H]1CCN1c1ccc2cc(C(=O)N[C@H]3CC[C@H](C(C)(C)O)CC3)cnc2n1` [Example 9, N-(trans-4-(2-Hydroxypropan-2-yl)cyclohexyl)-7-((S)-2-methylazetidin-1-yl)-1,8-naphthyridine-3-carboxamide], for which the IC50 is less than 10 nM.
In the case of `COc1nc2ncc(C(=O)N[C@H]3CC[C@H](C(C)(C)O)CC3)cc2cc1Cl` [Example 62, 6-Chloro-N-(trans-4-(2-hydroxypropan-2-yl)cyclohexyl)-7-methoxy-1,8-naphthyridine-3-carboxamide], the IC50 was less than 10 nM.
The same measure for `C[C@H]1CCN1c1nc2ncc(C(=O)N[C@H]3CCNC3=O)cc2cc1Cl` [Example 60, 6-Chloro-7-((S)-2-methylazetidin-1-yl)-N—((S)-2-oxopyrrolidin-3-yl)-1,8-naphthyridine-3-carboxamide]: less than 10 nM.
As for `O=C(N[C@H]1CC[C@@](O)(C(F)F)CC1)c1cnc2nc(C3CC3)ccc2c1` [Example 52, 7-Cyclopropyl-N-((1r,4r)-4-(difluoromethyl)-4-hydroxycyclohexyl)-1,8-naphthyridine-3-carboxamide], the IC50 is 100 to 1000 nM.
